Like-named read-outs stand apart in the source and are kept apart here.
How the values were obtained:
[1] = Scavenging of DPPH radical; details: 10 min, room temperature, methanol, read-out: IC50 ± SD DPPH
Protocol: We used the simple spectrophotometric method according to Yen and Chen ([1995]) to determine the ability to scavenge free radicals. Binding of DPPH? radical by compounds causes its decolorization. The compounds tested were diluted in methanol to the final concentration 200 µM to 12.5 µM. Trolox served as standard antioxidant control. Reactions of samples with DPPH? solution were performed in 96-well plates and lasted for 10 min at room temperature in the dark. After that, the absorbance changes were measured spectrophotometrically at 520 nm (Multiskan FC, Thermo Scientific, DE). Each value is the mean of 5 wells with standard deviation. Inhibitory concentrations (IC50) were expressed as the concentration of the derivative tested to react with one half of the DPPH? and were calculated by SigmaPlot.

[2] = system: human cervical cancer cells HeLa; experiment: MTT assay on HeLa cells; type: cell-based; details: for IC50: MTT, 72 h drug exposure, read-out: IC50 ± SD HeLa cells
Protocol: (§1) The human tumor cell line HeLa and murine fibroblast NIH-3T3 cells were obtained from the ATCC (Rockville, MD, USA). The cells grown at 37 °C in humidified 5%-CO2 and 95%-air atmosphere were in Dulbecco's modified eagle medium supplemented with 10% (vol/vol) inactivated bovine serum, penicillin G and streptomycin (100 mg/l). Before a uniform monolayer of cells was formed, cells were freed from the surface of the culture flask by a 0.25% solution of trypsin and were subcultivated two to three times a week. The cells were plated on the cultivation flask (surface 25 cm^2) at a density of 4×10^4 HeLa cells and 6×10^4 NIH-3T3 cells per ml medium and incubated for 24 h prior to the experiments.
(§2) The cytotoxic effect of the compounds prepared on cells was detected in vitro using the mitochondrial cytotoxic test according to Jantová et al. ([2010]) with modifications. Cell viability was evaluated using thiazolyl blue tetrazolium bromide (MTT), which indicates the metabolic activity of cells. The experiment was performed in 96-well microplates. The cells were seeded at a density of 3.5×10^3 HeLa or NIH-3T3 cells per well. Samples were dissolved in DMSO (stock solution 10 mM) and subsequently diluted in medium to the final concentration of 5 µM to 100 µM (concentration of DMSO 0.5%) and after 24 h they were added to the cells. Microplates were cultivated for 72 h in thermostat at 37 °C and 5% CO2 atmosphere. After incubation thiazolyl blue tetrazolium bromide (3.33 mg/ml phosphate buffered saline, pH=7.4) was pipetted to each well and left to incubate for further two hours. Then the medium with MTT solution was removed. Formazan crystals in viable cells were dissolved in the lysis solution (4 mM HCl and 0.1% Nonidet P40 in ethanol). Microplates were shaken 15 min at 1500 rpm. Absorbance was measured at 540 nm and reference wavelength at 740 nm (Multiskan FC, Thermo Scientific, DE). Each value is the mean of 6 wells with standard deviation. Inhibition activity was expressed as percentages of control with DMSO. For each compound IC50 values were calculated by SigmaPlot.

[3] = Ferric reducing antioxidant power (FRAP); details: 10 min, 37 °C, read-out: IC50 ± SD FRAP
Protocol: The antioxidant reducing power of the derivatives tested was performed using the FRAP method according to Benzie and Strain ([1996]). Ferric to ferrous ion reduction at low pH causes the formation of a colored ferrous-tripyridyltriazine complex. Samples diluted in methanol (200 µM to 12.5 µM) and FRAP reagent reacted for 10 min at 37 °C in 96-well microplates. At the end, absorbance changes were measured spectrophotometrically at 593 nm (Multiskan FC, Thermo Scientific, DE). Each value is the mean of 5 wells with standard deviation. Inhibitory concentrations (IC50) were expressed as the concentration of the derivative tested reducing one half of ferric complexes and were calculated by SigmaPlot.

[4] = system: non-cancer murine fibroblast cells NIH-3T3; experiment: MTT assay on NIH-3T3 cells; type: cell-based; details: for IC50: MTT, 72 h drug exposure, read-out: IC50 ± SD NIH-3T3 cells
Protocol: as §1, §2

NIH-3T3 cells = experiment: Light microscopy of NIH-3T3 cells; type: cell-based, murine; details: NIH-3T3, 25 µM and 50 µM, 72 h
Protocol: (§3) The cytotoxic action of the effective chloronaphtoquinone quercetin 5 was further observed also by light microscopy after 72 h of HeLa and NIH-3T3 cells cultivation. […] On the other hand, a significant decrease in cell number was found in cells treated with both concentrations studied (25 µM and 50 µM).
(§4) We monitored prepared quercetin derivatives for their cytotoxic action on human cervical cancer cells HeLa in the concentration range from 5 µM to 100 µM. For comparison non-cancer murine fibroblast cells NIH-3T3 were also evaluated. The MTT test and light microscopy were used for cytotoxicity measurements.

HeLa cells = experiment: Light microscopy of HeLa cells; type: cell-based, human; details: 25 µM and 50 µM, 72 h
Protocol: as §3, §4

| Compound | IC50 [1] | IC50 [2] | IC50 [3] | IC50 ([4]; Mus musculus, NIH3T3, 72 h) | inhibition at 25 µM ([2]; 25 µM, 72 h, read-out: Inhibition of cell proliferation) | inhibition at 50 µM ([2]; 50 µM, 72 h, read-out: Inhibition of cell proliferation) | inhibition at 100 µM ([2]; 100 µM, 72 h, read-out: Inhibition of cell proliferation) | morphologic changes (NIH-3T3 cells) | morphologic changes (HeLa cells) | inhibition at 25 µM ([4]; Mus musculus, NIH3T3, NIH-3T3, 25 µM, 72 h, read-out: Inhibition of cell proliferation) | inhibition at 50 µM ([4]; Mus musculus, NIH3T3, NIH-3T3, 50 µM, 72 h, read-out: Inhibition of cell proliferation) | inhibition at 100 µM ([4]; Mus musculus, NIH3T3, NIH-3T3, 100 µM, 72 h, read-out: Inhibition of cell proliferation) | IC50 [4] |
| --- | --- | --- | --- | --- | --- | --- | --- | --- | --- | --- | --- | --- | --- |
| Cc1c(C)c2c(c(C)c1O)CCC(C)(C(=O)O)O2 (stereo not shown) [T, trolox, reference compound] | 34.7 ± 1 µM | 34.7 ± 1 µM | 39.5 ± 2.1 µM | 39.5 ± 2.1 µM |  |  |  |  |  |  |  |  |  |
| O=C1c2c(O)cc(O)cc2OC2(c3ccc(O)c(O)c3)Oc3ccc(-c4oc5cc(O)cc(O)c5c(=O)c4O)cc3OC12O (stereo not shown) [compound 1, diquercetin] | 58.8 ± 6.2 µM | 64 ± 7.5 µM | 103 ± 6.2 µM | 32.9 ± 1.1 µM |  |  |  |  |  |  |  |  |  |
| CC(C)(CCl)C(=O)Oc1cc(-c2oc3cc(O)cc(O)c3c(=O)c2O)ccc1O [compound 2] | 27 ± 0.2 µM | 43.4 ± 2.8 µM | 12.5 ± 0.3 µM | 26.8 ± 0.5 µM |  |  |  |  |  |  |  |  |  |
| CC(C)(CCl)C(=O)Oc1cc(OC(=O)C(C)(C)CCl)c2c(=O)c(O)c(-c3ccc(O)c(OC(=O)C(C)(C)CCl)c3)oc2c1 [compound 3] | > 200 µM | 65 ± 4.5 µM | > 200 µM | 20.3 ± 1.9 µM |  |  |  |  |  |  |  |  |  |
| CC(=O)Oc1cc(OC(C)=O)c2c(=O)c(OC(C)=O)c(-c3ccc(OC(C)=O)c(OC(C)=O)c3)oc2c1 [compound 6, pentaacetyl quercetin] | > 200 µM | 29.6 ± 1.9 µM | > 200 µM | 15.5 ± 0.7 µM |  |  |  |  |  |  |  |  |  |
| CC(C)=CCOc1ccc(/C=C/C(=O)Oc2cc(O)c3c(=O)c(O)c(-c4ccc(OC(=O)/C=C/c5ccc(OCC=C(C)C)c(OCC=C(C)C)c5)c(OC(=O)/C=C/c5ccc(OCC=C(C)C)c(OCC=C(C)C)c5)c4)oc3c2)cc1OCC=C(C)C [compound 7] | > 200 µM | > 50 µM | > 200 µM | > 100 µM |  |  |  |  |  |  |  |  | > 50 µM |
| CC(C)=CCOc1ccc(/C=C/C(=O)Oc2cc(O)c3c(=O)c(O)c(-c4ccc(OC(=O)/C=C/c5ccc(OCC=C(C)C)c(OCC=C(C)C)c5)c(O)c4)oc3c2)cc1OCC=C(C)C [compound 8] | 161 ± 13.2 µM | > 50 µM | > 200 µM | > 100 µM |  |  |  |  |  |  |  |  | > 50 µM |
| COc1ccc(/C=C/C(=O)Oc2ccc(-c3oc4cc(O)cc(O)c4c(=O)c3O)cc2OC(=O)/C=C/c2ccc(OC)c(OCC=C(C)C)c2)cc1OCC=C(C)C [compound 14] | 82.8 ± 3.3 µM | > 50 µM | 183 ± 13.5 µM | > 50 µM |  |  |  |  |  |  |  |  |  |

Further lines, with some results ahead:

| IC50 [1] | IC50 [2] | IC50 [3] | Compound | IC50 ([4]; Mus musculus, NIH3T3, 72 h) | inhibition at 25 µM ([2]; 25 µM, 72 h, read-out: Inhibition of cell proliferation) | inhibition at 50 µM ([2]; 50 µM, 72 h, read-out: Inhibition of cell proliferation) | inhibition at 100 µM ([2]; 100 µM, 72 h, read-out: Inhibition of cell proliferation) | morphologic changes (NIH-3T3 cells) | morphologic changes (HeLa cells) | inhibition at 25 µM ([4]; Mus musculus, NIH3T3, NIH-3T3, 25 µM, 72 h, read-out: Inhibition of cell proliferation) | inhibition at 50 µM ([4]; Mus musculus, NIH3T3, NIH-3T3, 50 µM, 72 h, read-out: Inhibition of cell proliferation) | inhibition at 100 µM ([4]; Mus musculus, NIH3T3, NIH-3T3, 100 µM, 72 h, read-out: Inhibition of cell proliferation) | IC50 [4] |
| --- | --- | --- | --- | --- | --- | --- | --- | --- | --- | --- | --- | --- | --- |
| 16.2 ± 1.1 µM | 35.5 ± 1.1 µM | 12.5 ± 0.9 µM | O=c1c(O)c(-c2ccc(O)c(O)c2)oc2cc(O)cc(O)c12 [Q, quercetin] | 20.9 ± 0.9 µM |  |  |  |  |  |  |  |  |  |
| > 200 µM | > 100 µM | > 200 µM | CC1CN(CC(O)COc2cc(O)cc3oc(-c4ccc(O)c(O)c4)c(O)c(=O)c23)CC(C)O1 (stereo not shown) [compound 4] | > 100 µM |  |  |  |  |  |  |  |  |  |
| 28.4 ± 3 µM | 13.2 ± 1.6 µM | 64.5 ± 0.6 µM | O=C1C(Cl)=C(Oc2cc(-c3oc4cc(O)cc(O)c4c(=O)c3O)ccc2O)C(=O)c2ccccc21 [compound 5, chloronaphtoquinone quercetin] | 16.5 ± 0.1 µM | 94.5% | 97.9% | 97.7% | cell rounding and cell separation from the cultivation surface | cell rounding and cell separation from the cultivation surface | 71.9% | 85.2% | 93.7% |  |
| 63.7 ± 2.6 µM | 19.5 ± 0.8 µM | 112 ± 7.3 µM | CC(=O)OC1CC(OC(C)=O)(C(=O)Oc2cc(O)c3c(=O)c(O)c(-c4ccc(OC(=O)C5(OC(C)=O)CC(OC(C)=O)C(OC(C)=O)C(OC(C)=O)C5)c(O)c4)oc3c2)CC(OC(C)=O)C1OC(C)=O (stereo not shown) [compound 9, di(tetraacetylquinoyl) quercetin] | 16.1 ± 0.4 µM |  |  |  |  |  |  |  |  |  |
| 35.4 ± 2.7 µM | 16.5 ± 1.5 µM | > 200 µM | CC(=O)Oc1ccc(/C=C/C(=O)Oc2ccc(-c3oc4cc(O)c(O)cc4c(=O)c3OC(=O)/C=C/c3ccc(OC(C)=O)c(OC(C)=O)c3)cc2OC(=O)/C=C/c2ccc(OC(C)=O)c(OC(C)=O)c2)cc1OC(C)=O [compound 11] | 10.6 ± 0.1 µM |  |  |  |  |  |  |  |  |  |
| > 200 µM | > 50 µM | > 200 µM | CC(=O)Oc1ccccc1C(=O)Oc1ccc(-c2oc3cc(O)cc(OC(=O)c4ccccc4OC(C)=O)c3c(=O)c2OC(=O)c2ccccc2OC(C)=O)cc1OC(=O)c1ccccc1OC(C)=O [compound 12, tetra(acetylsalicyloyl) quercetin] | > 50 µM |  |  |  |  |  |  |  |  |  |
| > 200 µM | > 50 µM | > 200 µM | COc1ccc(/C=C/C(=O)Oc2cc(-c3oc4cc(O)cc(O)c4c(=O)c3O)ccc2O)cc1OC(C)=O [compound 15] | > 50 µM |  |  |  |  |  |  |  |  |  |

From publication PMC3945760, “Antioxidant action and cytotoxicity on HeLa and NIH-3T3 cells of new quercetin derivatives” (Interdisciplinary Toxicology, 2013)
